Holding throughout (assay type): biochemical
In experiment [1] the target is T1, Klenow fragment of E. coli DNA polymerase I (Escherichia coli, UniProt P00582).
T1 construct: the Klenow fragment of E. coli DNA polymerase I
The experiment is described as follows: Presteady-state kinetics: incorporation of unnatural triphosphate opposite dNaM and extension. The conditions noted are these: 2 μM dCTP, 10 s, dXTPs paired with dNaM; for % Incorporation: 40 nM unnatural triphosphate; for % Extension: 10 μM unnatural triphosphate. An excerpt: Exemplary methods for analyzing unnatural base pair synthesis efficiency (insertion of an unnatural nucleobase opposite its partner in a template) and extension (continued primer elongation) are provided herein. One or both of the nucleobases in an unnatural base pair, in various embodiments, may be a linker-derivatized unnatural nucleobase. One method uses a presteady-state assay. The assay is based on determining, under a fixed set of conditions, the amount of a primer (e.g. 23-mer) that is extended by addition of the unnatural nucleotide opposite its complementary nucleotide in a template (e.g., 45-mer) by a polymerase (e.g., the Klenow fragment of E. coli DNA polymerase I). In this assay, the efficiency of unnatural base pair synthesis is characterized by measuring the percent incorporation (% inc) at a given concentration of the unnatural and next correct triphosphate, for example using a ratio such as [24-mer+25-mer]/[23-mer+24-mer+25-mer]. In this assay, the efficiency of extension is characterized by measuring the percent extension (% ext) at a given concentration of the next correct nucleotide and saturating concentrations of unnatural nucleotide, for example using a ratio [25-mer]/[24-mer+25-mer]. Results from an exemplary presteady-state assay are shown in Table 1, wherein the unnatural triphosphate is 5SICS, FPT1, TPT1, TPT2, TPT3, FTPT3, TPT3^PA, or 5SICS^PA. In some embodiments, the percent incorporation of an unnatural nucleobase is at least 60%, 65%, 70%, 71%, 72%, 73%, 74%, 75%, 76%, 77%, 78%, 79%, 80%, 81%, 82%, 83%, 84%, 85%, 86%, 87%, 88%, 89%, 90%, 91%, 92%, 93%, 94%, 95%, 96%, 97%, 98%, or 99%. In some embodiments, the percent extension of a next correct nucleotide following insertion of an unnatural nucleobase is at least 30%, 31%, 32%, 33%, 34%, 35%, 36%, 37%, 38%, 39%, 40%, 41%, 42%, 43%, 44%, 45%, 46%, 47%, 48%, 49%, 50%, 55%, 60%, 65%, 70%, 75%, 80%, 85%, 90% or greater. In some embodiments, synthesis efficiency is increased by derivatizing the unnatural nucleobase. For example, by the addition of a linker, a protected linker, and/or a linker conjugated to a cargo molecule. As another example, derivatization includes atom substitutions, additions, or deletions. In some embodiments, percent extension is increased by derivatizing the unnatural nucleobase. Derivatization of an unnatural nucleobase, in some instances, increases by at least 1-2 orders of magnitude the efficiency of insertion of the nucleotide complementary to the base pair in the template. This increase in efficiency may be due to an increase kcat and a decreased KM.
^aIncorporation assay conditions: 40 nM unnatural triphosphate, […], 10s. ^bExtension assay conditions: […], 2 μM dCTP, 10 s. dXTPs are paired with dNaM.

For experiment [2], the system named is OneTaq polymerase. The experiment is described as follows: PCR-based screen and amplification of DNA containing unnatural base pairs, OneTaq (Example 1). The note with it: OneTaq, 1 min Extension, 52 cycles, D6 template. Here is the method: (§1) The triphosphates of the 6 group were prepared from the previously reported nucleosides (Kubelka, T., Slavetinska, L., Eigner, V. and Hocek, M. Synthesis of 2,6-disubstituted pyridin-3-yl C-2′-deoxyribonucleosides through chemoselective transformations of bromo-chloropyridine C-nucleosides. Org. Biomol. Chem., 11, 4702-4718) according to Ludwig, J. and Eckstein, F. Rapid and efficient synthesis of nucleoside 5′-0-(1-thiotriphosphates), 5′-triphosphates and 2′,3′-cyclophosphorothioates using 2-chloro-4H-1,3,2-benzodioxaphosphorin-4-one. J. Org. Chem., 54, 631-635. The purity of all other triphosphates was confirmed by MALDI-TOF and UV-VIS. Taq and OneTaq DNA polymerases were purchased from New England Biolabs (Ipswich, Mass.). A mixture of dNTPs was purchased from Fermentas (Glen Burnie, Md.). SYBR Green I Nucleic Acid Gel Stain (10,000×) was purchased from Life Technologies (Carlsbad, Calif.). The synthesis of the DNA templates, D8 (Malyshev, D. A., Dhami, K., Quach, H. T., Lavergne, T., Ordoukhanian, P., Torkamani, A. and Romesberg, F. E. Efficient and sequence-independent replication of DNA containing a third base pair establishes a functional six-letter genetic alphabet. Proc. Natl. Acad. Sci. USA, 109, 12005-12010), used for screening rounds 1-5, and D6 (Malyshev, D. A., Seo, Y. J., Ordoukhanian, P. and Romesberg, F. E. PCR with an expanded genetic alphabet. J. Am. Chem. Soc., 131, 14620-14621), used for all other amplifications, was described previously. Sanger sequencing was carried out as described previously (Malyshev, D. A., Dhami, K., Quach, H. T., Lavergne, T., Ordoukhanian, P., Torkamani, A. and Romesberg, F. E. Efficient and sequence-independent replication of DNA containing a third base pair establishes a functional six-letter genetic alphabet. Proc. Natl. Acad. Sci. USA, 109, 12005-12010). Raw Sanger sequencing traces were used to determine the percent retention of the unnatural base pairs, which was converted to fidelity per doubling, as described (Malyshev, D. A., Dhami, K., Quach, H. T., Lavergne, T., Ordoukhanian, P., Torkamani, A. and Romesberg, F. E. Efficient and sequence-independent replication of DNA containing a third base pair establishes a functional six-letter genetic alphabet. Proc. Natl. Acad. Sci. USA, 109, 12005-12010; Malyshev, D. A., Seo, Y. J., Ordoukhanian, P. and Romesberg, F. E. PCR with an expanded genetic alphabet. J. Am. Chem. Soc., 131, 14620-14621).
(§2) All PCR amplifications were performed in a CFX Connect Real-Time PCR Detection System (Bio-Rad), in a total volume of 25 μL using the following conditions: 1× OneTaq reaction buffer, 0.5× Sybr Green I, MgSO4 adjusted to 4.0 mM, 0.2 mM of each dNTP, 50 μM of each unnatural triphosphate, […] of Primer1 and Primer2 (See Table 2), and 0.02 U/μl of the DNA polymerase. Other conditions specific for each round of screening are described in Table 3. Amplified products were purified using DNA Clean and Concentrator-5 spin columns from Zymo Research (Irvine, Calif.). After purification, the PCR products were sequenced on a 3730 DNA Analyzer (Applied Biosystems) to determine the retention of the unnatural base pair as described below. Fidelity was characterized from unnatural base pair (UBP) retention as determined by sequencing with Primer1 on a 3730 DNA Analyzer (Applied Biosystems).
(§3) Specific PCR assay conditions. PCR with the most promising UBPs was carried out with the conditions as described in Table 3. PCR products were further purified on […] gels, followed by single band excision and subsequent clean up using the Zymo Research Zymoclean Gel DNA Recovery Kit. After elution with 20 μl of water, the DNA concentration was measured using fluorescent dye binding (Quant-iT dsDNA HS Assay kit, Life Technologies), and purified amplicons were sequenced in triplicate with both Primer1 and Primer2 to determine UBP retention and thus amplification fidelity. […]

Experiment [3] concerns the target T2, Taq polymerase (Thermus aquaticus, UniProt P19821).
T2 construct: purchased New England Biolabs (Ipswich, Mass.)
Kind of experiment: PCR-based screen and amplification of DNA containing unnatural base pairs, Taq (Example 1). The note with it: Taq, 10 s Extension, 52 cycles, D6 template. Here is the method:
as §1, §2, §3

The structures appear in SMILES notation. Marks after values point to notes of the source that are not given here. Bounds are passed on as bounds.

T2 sequence (P19821 whole entry): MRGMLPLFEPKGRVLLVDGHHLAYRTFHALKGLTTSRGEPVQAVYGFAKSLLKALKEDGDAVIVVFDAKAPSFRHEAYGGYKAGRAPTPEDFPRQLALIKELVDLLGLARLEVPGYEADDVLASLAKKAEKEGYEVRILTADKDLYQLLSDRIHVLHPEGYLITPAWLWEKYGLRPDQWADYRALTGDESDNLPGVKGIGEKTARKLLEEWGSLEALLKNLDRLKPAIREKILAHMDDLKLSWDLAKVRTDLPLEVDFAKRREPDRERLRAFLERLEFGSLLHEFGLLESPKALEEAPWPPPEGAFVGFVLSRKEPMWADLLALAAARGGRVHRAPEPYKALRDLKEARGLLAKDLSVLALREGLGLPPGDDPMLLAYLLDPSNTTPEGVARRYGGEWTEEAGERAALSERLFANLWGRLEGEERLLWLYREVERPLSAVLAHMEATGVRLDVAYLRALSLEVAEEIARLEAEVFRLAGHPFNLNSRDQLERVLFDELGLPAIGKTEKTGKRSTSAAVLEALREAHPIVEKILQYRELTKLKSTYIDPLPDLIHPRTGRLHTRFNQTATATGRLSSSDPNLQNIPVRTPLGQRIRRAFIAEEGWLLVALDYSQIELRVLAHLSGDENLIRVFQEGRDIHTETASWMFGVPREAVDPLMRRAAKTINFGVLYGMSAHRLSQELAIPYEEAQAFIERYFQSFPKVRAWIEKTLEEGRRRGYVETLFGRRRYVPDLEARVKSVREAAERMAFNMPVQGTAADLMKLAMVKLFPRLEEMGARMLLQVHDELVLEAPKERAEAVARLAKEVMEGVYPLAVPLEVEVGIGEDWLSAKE
T1 sequence (P00582 324-928): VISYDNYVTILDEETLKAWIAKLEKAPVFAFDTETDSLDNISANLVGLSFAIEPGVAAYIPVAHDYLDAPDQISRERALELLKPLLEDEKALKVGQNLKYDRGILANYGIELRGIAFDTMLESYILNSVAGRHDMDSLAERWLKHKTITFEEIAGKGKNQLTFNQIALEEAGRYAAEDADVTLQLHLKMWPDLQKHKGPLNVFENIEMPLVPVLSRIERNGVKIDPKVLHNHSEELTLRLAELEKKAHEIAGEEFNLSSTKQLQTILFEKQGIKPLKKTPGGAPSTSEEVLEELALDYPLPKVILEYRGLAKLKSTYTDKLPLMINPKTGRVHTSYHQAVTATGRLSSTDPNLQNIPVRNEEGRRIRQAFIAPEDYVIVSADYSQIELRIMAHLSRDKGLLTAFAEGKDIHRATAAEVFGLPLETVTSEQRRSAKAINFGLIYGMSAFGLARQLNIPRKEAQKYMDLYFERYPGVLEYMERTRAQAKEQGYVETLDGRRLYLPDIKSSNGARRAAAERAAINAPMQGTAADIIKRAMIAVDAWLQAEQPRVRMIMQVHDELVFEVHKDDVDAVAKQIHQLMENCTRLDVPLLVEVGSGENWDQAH

Take `O=P(O)(O)OP(=O)(O)OP(=O)(O)OC[C@H]1O[C@@H](n2cc(F)c3ccsc3c2=S)C[C@@H]1O` [FTPT3]: in experiment [1], the “% Incorporation” value is 66.3 ± 0.5% and the “% Extension” value came to 33.8 ± 0.2%.

Consider `Cc1cc2c(=S)n([C@H]3C[C@H](O)[C@@H](COP(=O)(O)OP(=O)(O)OP(=O)(O)O)O3)ccc2o1` [FPT1], for which, in experiment [1], the “% Incorporation” value came to 7.2 ± 0.2% and the “% Extension” value was determined as 32.0 ± 1.5%.

Take `C#Cc1cc(OC)c([C@H]2C[C@H](O)[C@@H](COP(=O)(O)OP(=O)(O)OP(=O)(O)O)O2)cc1F.O=P(O)(O)OP(=O)(O)OP(=O)(O)OC[C@H]1O[C@@H](n2cc(F)c3ccsc3c2=S)C[C@@H]1O` [FTPT3-FEMO]: in experiment [2], the “Amplification, ×10^12” value was 6.3 ×10^12; the “Fidelity per Doubling, %” value came to 99.24 ± 0.04%; the “Retention, %” value turned out to be 72.4 ± 1.4%. In experiment [3], the “Amplification, ×10^12” value is given as 5.7 ×10^12; the “Fidelity per Doubling, %” value was determined as 99.51 ± 0.11%; the “Retention, %” value is reported as 81 ± 4%.

Turning to `Cc1cc2c(=S)n([C@H]3C[C@H](O)[C@@H](COP(=O)(O)OP(=O)(O)OP(=O)(O)O)O3)ccc2s1` [TPT1], in experiment [1], the “% Incorporation” value is on record as 28.7 ± 0.5% and the “% Extension” value was determined as 8.8 ± 0.2%.

For the molecule `COc1cc(I)c(F)cc1[C@H]1C[C@H](O)[C@@H](COP(=O)(O)OP(=O)(O)OP(=O)(O)O)O1.O=P(O)(O)OP(=O)(O)OP(=O)(O)OC[C@H]1O[C@@H](n2ccc3ccsc3c2=S)C[C@@H]1O` [TPT3-FIMO], in experiment [2], the “Amplification, ×10^12” value was 8.7 ×10^12; the “Fidelity per Doubling, %” value is listed as 99.61 ± 0.03%; the “Retention, %” value is 84.7 ± 1.1%. In experiment [3], the “Amplification, ×10^12” value is recorded as 8.5 ×10^12; the “Fidelity per Doubling, %” value is on record as 99.60 ± 0.09%; the “Retention, %” value is recorded as 84 ± 3%.

On to `Cc1cc2ccn([C@H]3C[C@H](O)[C@@H](COP(=O)(O)OP(=O)(O)OP(=O)(O)O)O3)c(=S)c2s1` [TPT2], for which, in experiment [1], the “% Incorporation” value is reported as 65.7 ± 0.5% and the “% Extension” value came to 34.5 ± 0.5%.

In the case of `COc1cc2ccccc2cc1[C@H]1C[C@H](O)[C@@H](COP(=O)(O)OP(=O)(O)OP(=O)(O)O)O1.O=P(O)(O)OP(=O)(O)OP(=O)(O)OC[C@H]1O[C@@H](n2cc(F)c3ccsc3c2=S)C[C@@H]1O` [FTPT3-NaM], in experiment [2], the “Amplification, ×10^12” value is listed as 7.0 ×10^12; the “Fidelity per Doubling, %” value is listed as 99.76 ± 0.06%; the “Retention, %” value is recorded as 90 ± 2%. In addition, in experiment [3], the “Amplification, ×10^12” value is recorded as 3.7 ×10^12; the “Fidelity per Doubling, %” value amounted to 99.76 ± 0.15%; the “Retention, %” value worked out at 91 ± 6%.

Turning to `COc1cc2ccccc2cc1[C@H]1C[C@H](O)[C@@H](COP(=O)(O)OP(=O)(O)OP(=O)(O)O)O1.Cc1ccc2c(=S)n([C@H]3C[C@H](O)[C@@H](COP(=O)(O)OP(=O)(O)OP(=O)(O)O)O3)ccc2c1` [5SICS-NaM, reference compound], in experiment [2], the “Amplification, ×10^12” value is given as 8.1 ×10^12; the “Fidelity per Doubling, %” value turned out to be 99.00 ± 0.02%; the “Retention, %” value is listed as 77.1 ± 0.7%. Also, in experiment [3], the “Amplification, ×10^12” value was 9.3 ×10^12; the “Fidelity per Doubling, %” value is listed as <85^b %; the “Retention, %” value is <50^b %.

The values are drawn from US11634451B2, “Method for the site-specific enzymatic labelling of nucleic acids in vitro by incorporation of unnatural nucleotides” (The Scripps Research Institute, priority 2013, dated 2023).
